# Laboratory results published in US10988477B2 (Merck Patent GmbH, priority 2018, dated 2021).
# Molecular target: GCN2 kinase (Homo sapiens, UniProt Q9P2K8)
# Assay: GCN2 enzyme inhibition assay (Transcreener ADP2 fluorescence polarization)
# Format: biochemical
# Conditions: Enzyme activity for compounds of Formula IV; Ki(app), 280 μM ATP, 25° C.
# How it was run: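 Inhibition of 4 nM GCN2 was measured with compound up to 8 μM final, ATP 280 μM and (RS)7 peptide 200 μM over a 1 h, 25 °C reaction. ADP FP readout; IC50 and Ki(app) calculated from percent inhibition.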
# Chain of GCN2 kinase (Q9P2K8 whole entry): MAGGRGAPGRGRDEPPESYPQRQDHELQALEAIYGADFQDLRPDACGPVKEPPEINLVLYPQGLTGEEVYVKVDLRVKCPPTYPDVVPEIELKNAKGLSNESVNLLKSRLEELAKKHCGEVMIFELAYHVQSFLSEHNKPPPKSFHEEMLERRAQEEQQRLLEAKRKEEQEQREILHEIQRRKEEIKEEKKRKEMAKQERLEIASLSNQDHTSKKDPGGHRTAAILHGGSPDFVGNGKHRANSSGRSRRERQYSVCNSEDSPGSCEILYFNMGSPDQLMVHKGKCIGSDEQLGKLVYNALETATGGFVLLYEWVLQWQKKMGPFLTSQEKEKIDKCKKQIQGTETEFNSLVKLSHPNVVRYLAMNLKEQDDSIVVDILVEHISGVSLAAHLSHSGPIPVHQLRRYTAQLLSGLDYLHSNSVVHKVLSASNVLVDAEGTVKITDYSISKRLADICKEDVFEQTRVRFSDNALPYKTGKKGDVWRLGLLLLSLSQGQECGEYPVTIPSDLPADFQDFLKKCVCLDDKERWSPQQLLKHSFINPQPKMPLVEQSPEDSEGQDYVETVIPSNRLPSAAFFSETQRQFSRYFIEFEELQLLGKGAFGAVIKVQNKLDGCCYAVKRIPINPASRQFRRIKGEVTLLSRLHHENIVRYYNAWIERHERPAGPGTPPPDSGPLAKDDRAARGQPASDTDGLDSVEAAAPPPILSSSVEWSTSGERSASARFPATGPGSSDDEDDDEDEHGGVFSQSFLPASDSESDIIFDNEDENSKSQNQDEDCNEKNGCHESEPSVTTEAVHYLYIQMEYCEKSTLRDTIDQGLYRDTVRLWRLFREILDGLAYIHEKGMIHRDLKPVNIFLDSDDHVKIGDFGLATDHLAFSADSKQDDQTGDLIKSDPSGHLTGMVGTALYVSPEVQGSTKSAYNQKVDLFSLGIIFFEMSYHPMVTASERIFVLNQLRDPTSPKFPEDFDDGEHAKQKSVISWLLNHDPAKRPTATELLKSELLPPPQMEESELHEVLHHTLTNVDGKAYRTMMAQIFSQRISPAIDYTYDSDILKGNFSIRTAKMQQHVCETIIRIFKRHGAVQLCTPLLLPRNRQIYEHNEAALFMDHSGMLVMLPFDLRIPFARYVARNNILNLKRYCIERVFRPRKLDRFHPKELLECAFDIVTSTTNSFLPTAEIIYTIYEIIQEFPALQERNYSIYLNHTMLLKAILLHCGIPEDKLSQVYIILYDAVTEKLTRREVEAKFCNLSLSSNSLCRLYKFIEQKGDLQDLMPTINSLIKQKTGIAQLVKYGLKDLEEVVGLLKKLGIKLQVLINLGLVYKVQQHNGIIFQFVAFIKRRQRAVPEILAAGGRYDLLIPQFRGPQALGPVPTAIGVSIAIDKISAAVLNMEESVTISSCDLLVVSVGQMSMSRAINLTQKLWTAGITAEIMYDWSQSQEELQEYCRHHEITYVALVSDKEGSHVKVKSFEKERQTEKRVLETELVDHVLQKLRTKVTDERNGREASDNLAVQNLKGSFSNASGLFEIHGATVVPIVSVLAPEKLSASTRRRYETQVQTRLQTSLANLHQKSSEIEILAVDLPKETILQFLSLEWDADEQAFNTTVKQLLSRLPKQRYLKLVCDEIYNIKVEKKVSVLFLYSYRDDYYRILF
row,Ki [nM],Structure (SMILES)
1,100 to 1000,"CN1CCN(c2cccc(-c3cnc4cnc(C(N)=O)cn34)n2)CC1 [IV-212, 3-(6-(4-Methylpiperazin-1-yl)pyridin-2-yl)imidazo[1,2-a]pyrazine-6-carboxamide]"
2,10 to 100,"CC1C(c2cn[nH]c2)OCCN1c1ccnc(-c2cnc3cnc(C(F)(F)F)cn23)n1 (centres unmarked) [IV-218, 3-Methyl-2-(1H-pyrazol-4-yl)-4-(2-(6-(trifluoromethyl)imidazo[1,2-a]pyrazin-3-yl)pyrimidin-4-yl)morpholine]"
3,10 to 100,"NC(=O)c1cn2c(-c3cccc(N4CCC(O)CC4)n3)cnc2cn1 [IV-219, 3-(6-(4-Hydroxypiperidin-1-yl)pyridin-2-yl)imidazo[1,2-a]pyrazine-6-carboxamide]"
4,10 to 100,"NC(=O)c1cn2c(-c3cccc(N4CCCC(CO)C4)n3)cnc2cn1 (centres unmarked) [IV-220, 3-(6-(3-(Hydroxymethyl)piperidin-1-yl)pyridin-2-yl)imidazo[1,2-a]pyrazine-6-carboxamide]"
5,10 to 100,"NC(=O)c1cn2c(-c3cccc(N4CCC(CO)CC4)n3)cnc2cn1 [IV-221, 3-(6-(4-(Hydroxymethyl)piperidin-1-yl)pyridin-2-yl)imidazo[1,2-a]pyrazine-6-carboxamide]"
6,10 to 100,"CC(C)(O)C1CCN(c2cccc(-c3cnc4cnc(C(N)=O)cn34)n2)CC1 [IV-226, 3-(6-(4-(2-Hydroxypropan-2-yl)piperidin-1-yl)pyridin-2-yl)imidazo[1,2-a]pyrazine-6-carboxamide]"
7,100 to 1000,"NC(=O)c1cn2c(-c3cccc(N4CCN5C(=O)NCC5C4)n3)cnc2cn1 (centres unmarked) [IV-227, 3-(6-(3-Oxohexahydroimidazo[1,5-a]pyrazin-7(1H)-yl)pyridin-2-yl)imidazo[1,2-a]pyrazine-6-carboxamide]"
8,10 to 100,"FC(F)c1cn2c(-c3cccc(-c4cccc5[nH]ccc45)n3)cnc2cn1 [IV-233, 3-(6-(1H-Indol-4-yl)pyridin-2-yl)-6-(difluoromethyl)imidazo[1,2-a]pyrazine]"
9,100 to 1000,"CN1CCN(c2ccnc(-c3cnc4cnc(C(N)=O)cn34)n2)CC1 [IV-239, 3-(4-(4-Methylpiperazin-1-yl)pyrimidin-2-yl)imidazo[1,2-a]pyrazine-6-carboxamide]"
10,100 to 1000,NC(=O)c1cn2c(-c3nccc(N4CCOCC4)n3)cnc2cn1 [IV-240]
11,100 to 1000,"NC(=O)c1cn2c(-c3nccc(N4CCCCC4CO)n3)cnc2cn1 (centres unmarked) [IV-241, 3-(4-(2-(Hydroxymethyl)piperidin-1-yl)pyrimidin-2-yl)imidazo[1,2-a]pyrazine-6-carboxamide]"
12,10 to 100,"NC(=O)c1cn2c(-c3nccc(N4CCCC(CO)C4)n3)cnc2cn1 (centres unmarked) [IV-242, 3-(4-(3-(Hydroxymethyl)piperidin-1-yl)pyrimidin-2-yl)imidazo[1,2-a]pyrazine-6-carboxamide]"
13,10 to 100,"NC(=O)c1cn2c(-c3nccc(N4CCC(CO)CC4)n3)cnc2cn1 [IV-243, 3-(4-(4-(Hydroxymethyl)piperidin-1-yl)pyrimidin-2-yl)imidazo[1,2-a]pyrazine-6-carboxamide]"
14,10 to 100,"CC(=O)NC1CCN(c2ccnc(-c3cnc4cnc(C(N)=O)cn34)n2)CC1 [IV-248, 3-(4-(4-Acetamidopiperidin-1-yl)pyrimidin-2-yl)imidazo[1,2-a]pyrazine-6-carboxamide]"
15,100 to 1000,"CC(=O)NC1CCCN(c2ccnc(-c3cnc4cnc(C(N)=O)cn34)n2)C1 (centres unmarked) [IV-249, 3-(4-(3-Acetamidopiperidin-1-yl)pyrimidin-2-yl)imidazo[1,2-a]pyrazine-6-carboxamide]"
16,100 to 1000,"CS(=O)(=O)NC1CCCN(c2ccnc(-c3cnc4cnc(C(N)=O)cn34)n2)C1 (centres unmarked) [IV-250, 3-(4-(3-(Methylsulfonamido)piperidin-1-yl)pyrimidin-2-yl)imidazo[1,2-a]pyrazine-6-carboxamide]"
17,100 to 1000,"CNS(=O)(=O)C1CCCN(c2ccnc(-c3cnc4cnc(C(N)=O)cn34)n2)C1 (centres unmarked) [IV-251, 3-(4-(3-(N-Methylsulfamoyl)piperidin-1-yl)pyrimidin-2-yl)imidazo[1,2-a]pyrazine-6-carboxamide]"
18,100 to 1000,"CNS(=O)(=O)C1CCN(c2ccnc(-c3cnc4cnc(C(N)=O)cn34)n2)CC1 [IV-252, 3-(4-(4-(N-Methylsulfamoyl)piperidin-1-yl)pyrimidin-2-yl)imidazo[1,2-a]pyrazine-6-carboxamide]"
19,10 to 100,"N#CC1CN(c2ccnc(-c3cnc4cnc(C(N)=O)cn34)n2)CCC1=O (centres unmarked) [IV-253, 3-(4-(3-Cyano-4-oxopiperidin-1-yl)pyrimidin-2-yl)imidazo[1,2-a]pyrazine-6-carboxamide]"
20,10 to 100,"N#CC1CCN(c2ccnc(-c3cnc4cnc(C(N)=O)cn34)n2)CC1 [IV-254, 3-(4-(4-Cyanopiperidin-1-yl)pyrimidin-2-yl)imidazo[1,2-a]pyrazine-6-carboxamide]"
21,10 to 100,"FC(F)(F)c1cn2c(-c3nccc(N4CCCC(n5ccnc5)C4)n3)cnc2cn1 (centres unmarked) [IV-255, 3-(4-(3-(1H-Imidazol-1-yl)piperidin-1-yl)pyrimidin-2-yl)-6-(trifluoromethyl)imidazo[1,2-a]pyrazine]"

row,Ki [nM],Structure (SMILES)
1,100 to 1000,"NC(=O)c1cn2c(-c3nccc(N4CCCC(N)C4)n3)cnc2cn1 (centres unmarked) [IV-256, 3-(4-(3-Aminopiperidin-1-yl)pyrimidin-2-yl)imidazo[1,2-a]pyrazine-6-carboxamide]"
2,10 to 100,"NC(=O)c1cn2c(-c3nccc(N4CCN5C(=O)CCCC5C4)n3)cnc2cn1 (centres unmarked) [IV-257, 3-(4-(6-Oxooctahydro-2H-pyrido[1,2-a]pyrazin-2-yl)pyrimidin-2-yl)imidazo[1,2-a]pyrazine-6-carboxamide]"
3,100 to 1000,"N#CC1CCCCN1c1ccnc(-c2cnc3cnc(C(N)=O)cn23)n1 (centres unmarked) [IV-258, 3-(4-(2-Cyanopiperidin-1-yl)pyrimidin-2-yl)imidazo[1,2-a]pyrazine-6-carboxamide]"
4,100 to 1000,"CC(=O)N1CCN(c2cccc(-c3cnc4cnc(C(F)(F)F)cn34)n2)CC1 [IV-259, 1-(4-(6-(6-(Trifluoromethyl)imidazo[1,2-a]pyrazin-3-yl)pyridin-2-yl)piperazin-1-yl)ethan-1-one]"
5,10 to 100,"CNC(=O)c1cn2c(-c3cccc(N4CCN(C(C)=O)CC4)n3)cnc2cn1 [IV-260, 3-(6-(4-Acetylpiperazin-1-yl)pyridin-2-yl)-N-methylimidazo[1,2-a]pyrazine-6-carboxamide]"
6,10 to 100,"CC1CCCCN1c1ccnc(-c2cnc3cnc(C(N)=O)cn23)n1 (centres unmarked) [IV-261, 3-(4-(2-Methylpiperidin-1-yl)pyrimidin-2-yl)imidazo[1,2-a]pyrazine-6-carboxamide]"
7,100 to 1000,"NC(=O)c1cn2c(-c3nccc(N4CCC(=O)N5CCCC5C4)n3)cnc2cn1 (centres unmarked) [IV-262, 3-(4-(5-Oxohexahydro-1H-pyrrolo[1,2-a][1,4]diazepin-2(3H)-yl)pyrimidin-2-yl)imidazo[1,2-a]pyrazine-6-carboxamide]"
8,100 to 1000,"NC(=O)c1cn2c(-c3nccc(N4CC(=O)N5CCCCC5C4)n3)cnc2cn1 (centres unmarked) [IV-263, 3-(4-(4-Oxooctahydro-2H-pyrido[1,2-a]pyrazin-2-yl)pyrimidin-2-yl)imidazo[1,2-a]pyrazine-6-carboxamide]"
9,< 10,"CC1CCCN(c2ccnc(-c3cnc4cnc(C(N)=O)cn34)n2)C1C (centres unmarked) [IV-264, 3-(4-(2,3-Dimethylpiperidin-1-yl)pyrimidin-2-yl)imidazo[1,2-a]pyrazine-6-carboxamide]"
10,100 to 1000,"NC(=O)c1cn2c(-c3nccc(N4CCN5CCCCC5C4)n3)cnc2cn1 (centres unmarked) [IV-265, 3-(4-(Octahydro-2H-pyrido[1,2-a]pyrazin-2-yl)pyrimidin-2-yl)imidazo[1,2-a]pyrazine-6-carboxamide]"
11,10 to 100,"NC(=O)c1cn2c(-c3nccc(N4CCC5(CC4)OCCO5)n3)cnc2cn1 [IV-266, 3-(4-(1,4-Dioxa-8-azaspiro[4.5]decan-8-yl)pyrimidin-2-yl)imidazo[1,2-a]pyrazine-6-carboxamide]"
12,100 to 1000,"CC(=O)N(C)C1CCN(c2ccnc(-c3cnc4cnc(C(N)=O)cn34)n2)C1 (centres unmarked) [IV-267, 3-(4-(3-(N-Methylacetamido)pyrrolidin-1-yl)pyrimidin-2-yl)imidazo[1,2-a]pyrazine-6-carboxamide]"
13,100 to 1000,"NC(=O)c1cn2c(-c3nccc(N4CC(=O)N5CCCC5C4)n3)cnc2cn1 (centres unmarked) [IV-268, 3-(4-(4-Oxohexahydropyrrolo[1,2-a]pyrazin-2(1H)-yl)pyrimidin-2-yl)imidazo[1,2-a]pyrazine-6-carboxamide]"
14,10 to 100,"NC(=O)c1cn2c(-c3nccc(N4CCC5(CCCO5)CC4)n3)cnc2cn1 [IV-269, 3-(4-(1-Oxa-8-azaspiro[4.5]decan-8-yl)pyrimidin-2-yl)imidazo[1,2-a]pyrazine-6-carboxamide]"
15,100 to 1000,"NC(=O)c1cn2c(-c3nccc(N4CC5(CCOC5)C4)n3)cnc2cn1 [IV-270, 3-(4-(6-Oxa-2-azaspiro[3.4]octan-2-yl)pyrimidin-2-yl)imidazo[1,2-a]pyrazine-6-carboxamide]"
16,100 to 1000,"CC1CCC(C)N(c2ccnc(-c3cnc4cnc(C(N)=O)cn34)n2)C1 (centres unmarked) [IV-271, 3-(4-(2,5-Dimethylpiperidin-1-yl)pyrimidin-2-yl)imidazo[1,2-a]pyrazine-6-carboxamide]"
17,100 to 1000,"CC(=O)N1CCN(c2ccnc(-c3cnc4cnc(C(N)=O)cn34)n2)C(C)C1 (centres unmarked) [IV-272, 3-(4-(4-Acetyl-2-methylpiperazin-1-yl)pyrimidin-2-yl)imidazo[1,2-a]pyrazine-6-carboxamide]"
18,100 to 1000,"CC(=O)N1CCN(c2cccc(-c3cnc4cnc(C(=O)N(C)C)cn34)n2)CC1 [IV-276, 3-(6-(4-Acetylpiperazin-1-yl)pyridin-2-yl)-N,N-dimethylimidazo[1,2-a]pyrazine-6-carboxamide]"
19,10 to 100,"NC(=O)c1cn2c(-c3nccc(N4CCN(C(=O)C5CC5)CC4)n3)cnc2cn1 [IV-277, 3-(4-(4-(Cyclopropanecarbonyl)piperazin-1-yl)pyrimidin-2-yl)imidazo[1,2-a]pyrazine-6-carboxamide]"
20,< 10,"Cc1[nH]ncc1C1NC(C)CN(c2ccnc(-c3cnc4cnc(Cl)cn34)n2)C1C (centres unmarked) [IV-278, 6-Chloro-3-(4-(2,5-dimethyl-3-(5-methyl-1H-pyrazol-4-yl)piperazin-1-yl)pyrimidin-2-yl)imidazo[1,2-a]pyrazine]"
